Measured values as given in US20080004273A1, “Inhibitors of protein tyrosine kinase activity” (priority 2006, published 2008).

Tests used:
DU145 = DU145 scattering inhibition; conditions: Homo sapiens, DU-145, read-out: Potency in cell-based assays DU145 scattering inhibition
MNNGHOS tumor xenograft = experiment: In vivo solid tumor disease model, MNNGHOS tumor xenograft; conditions: MNNGHOS xenograft in mice, dosed orally at 40 mg/kg in PEG 400/0.1 N HCl in saline (40:60)
Description: In Vivo Solid Tumor Disease Model
This test measures the capacity of compounds to inhibit solid tumor growth.
Tumor xenografts are established in the flank of female athymic CDl mice (Charles River Inc.), by subcutaneous injection of 1X10^6 cells/mouse. Once established, tumors are then serially passaged s.c. in nude mice hosts. Tumor fragments from these host animals are used in subsequent compound evaluation experiments. For compound evaluation experiments female nude mice weighing approximately 20 g are implanted s.c. by surgical implantation with tumor fragments of 30 mg from donor tumors. When the tumors are approximately 100 mm^3 in size (˜7-10 days following implantation), the animals are randomized and separated into treatment and control groups. Each group contains 6-8 tumor-bearing mice, each of which is ear-tagged and followed individually throughout the experiment.
Mice are weighed and tumor measurements are taken by calipers three times weekly, starting on Day 1. These tumor measurements are converted to tumor volume by the well-known formula […]. The experiment is terminated when the control tumors reach a size of approximately 1500 mm^3. […] In addition to tumor volumes, body weight of animals is monitored twice weekly for up to 3 weeks. […]

IC50 (DU145): 400 nM
SMILES: COc1cc2nccc(Oc3ccc(NC(=O)N4CCN(c5ccccc5)C4=O)cc3F)c2cc1OC [Example 2, N-(4-(6,7-Dimethoxyquinolin-4-yloxy)-3-fluorophenyl)-2-oxo-3-phenylimidazolidine-1-carboxamide]
effect on tumors (MNNGHOS tumor xenograft): full regression of the tumors
tumor growth inhibition (MNNGHOS tumor xenograft): 112%
